Data from patent publication US20240024338A1, “CARBIDOPA AND L-DOPA PRODRUGS AND METHODS OF USE” (AbbVie Inc., priority 2016, published 2024).

Legend:
[1] = In vitro bioconversion study (intestinal S9 fractions), human; format: in vitro ADME; details: human intestinal S9 fraction 1 mg/mL, prodrug 2.5 μg/mL, 37° C.
Source text: (§1) The t1/2 appeared to be shorter in human intestinal S9 than in rat intestinal S9.

[2] = In vitro bioconversion study (blood), rat; details: prodrug 2.5 μg/mL, 37° C.
Experimental: The in vitro bioconversion of the L-dopa phosphate prodrugs to L-dopa and the carbidopa phosphate prodrugs to carbidopa was evaluated in several studies. […] The reaction mixtures were incubated at 37° C. for 5 to 6 time points within 1 to 2 hours. At the end of each time point, the reaction mixtures were quenched by 2 to 3 volumes of 5% trichloroacetic acid in water. After quenching, the mixtures were centrifuged at 3000 rpm for 20 minutes, and the supernatants were analyzed by LC-MS for quantitation of the prodrug, L-dopa or carbidopa. The in vitro bioconversion was assessed by monitoring both time-dependent depletion of the prodrug and the formation of the corresponding L-dopa or carbidopa.

[3] = In vitro bioconversion study (skin homogenates), rat; details: rat skin homogenate 3 mg/mL, prodrug 2.5 μg/mL, 37° C.
[4] = 1-Day stability study, diphosphate combination solution; format: physicochemical; details: combination solution: L-dopa 3′,4′-diphosphate 35 mg/mL + carbidopa 3′,4′-diphosphate 8.7 mg/mL, pH 6.2, room temperature, nitrogen purged
Experimental: In addition, a solution combining the diphosphates of each compound (L-dopa 3′, 4′-diphosphate at 35 mg/mL and carbidopa 3′, 4′-diphosphate at 8.7 mg/mL) was monitored over one day at room temperature. This sample was purged with nitrogen to remove oxygen.

[5] = In vitro bioconversion study (blood), human; format: in vitro ADME; details: prodrug 2.5 μg/mL, 37° C.
Experimental: (§2) The in vitro bioconversion of the L-dopa phosphate prodrugs to L-dopa and the carbidopa phosphate prodrugs to carbidopa was evaluated in several studies. In brief, the L-dopa and carbidopa phosphate prodrugs (2.5 μg/mL) were incubated with tissue homogenate or fractions from rats, mini-pigs, or human, including blood, skin homogenate (3 mg/mL), liver microsomes (1 mg/mL), liver S9 fraction (1 mg/mL), kidney S9 fraction (1 mg/mL), and intestine S9 fractions (1 mg/mL). The reaction mixtures were incubated at 37° C. for 5 to 6 time points within 1 to 2 hours. At the end of each time point, the reaction mixtures were quenched by 2 to 3 volumes of 5% trichloroacetic acid in water. After quenching, the mixtures were centrifuged at 3000 rpm for 20 minutes, and the supernatants were analyzed by LC-MS for quantitation of the prodrug, L-dopa or carbidopa. The in vitro bioconversion was assessed by monitoring both time-dependent depletion of the prodrug and the formation of the corresponding L-dopa or carbidopa.

[6] = In vitro bioconversion study (intestinal S9 fractions), rat; format: in vitro ADME; details: rat intestinal S9 fraction 1 mg/mL, prodrug 2.5 μg/mL, 37° C.
Source text: as §1

[7] = In vitro bioconversion study (skin homogenates), human; details: human skin homogenate 3 mg/mL, prodrug 2.5 μg/mL, 37° C.
[8] = In vitro bioconversion study (blood), mini-pig; format: in vitro ADME; details: prodrug 2.5 μg/mL, 37° C.
Experimental: as §2

[9] = Phosphate prodrug solubility study in water; format: physicochemical; details: for Solubility: water, ambient, visual assessment; for solubility compared to L-dopa and carbidopa (FIG. 1): pH of 7.4
Experimental: The L-dopa phosphate prodrugs and the carbidopa phosphate prodrugs were evaluated in a solubility study. The solubility values of the phosphate prodrugs in water under ambient conditions were determined by visual assessment. Table 13-A reports the results of the study, including the measured values for L-dopa and carbidopa.

[10] = In vitro bioconversion study, liver S9 fraction, mini-pig; format: in vitro ADME; details: mini-pig liver S9 fraction 1 mg/mL, prodrug 2.5 μg/mL, 37° C.
Experimental: as §2

[11] = In vitro bioconversion study, liver S9 fraction, human; format: in vitro ADME; details: human liver S9 fraction 1 mg/mL, prodrug 2.5 μg/mL, 37° C.
Experimental: as §2

[12] = In vitro bioconversion study, kidney S9 fraction, human; format: in vitro ADME; details: human kidney S9 fraction 1 mg/mL, prodrug 2.5 μg/mL, 37° C.
Experimental: as §2

[13] = In vitro bioconversion study, liver S9 fraction, rat; format: in vitro ADME; details: rat liver S9 fraction 1 mg/mL, prodrug 2.5 μg/mL, 37° C.
Experimental: as §2

[14] = 1-Day stability study of prodrugs in aqueous solution; format: physicochemical; details: aqueous solution 80 μg/mL, ambient storage
Experimental: The L-dopa phosphate prodrugs and the carbidopa phosphate prodrugs were evaluated in a stability study.

[15] = In vitro bioconversion study, kidney S9 fraction, rat; format: in vitro ADME; details: rat kidney S9 fraction 1 mg/mL, prodrug 2.5 μg/mL, 37° C.
Experimental: as §2

[16] = In vitro bioconversion study, human liver microsomes; format: in vitro ADME; details: human liver microsomes 1 mg/mL, prodrug 2.5 μg/mL, 37° C.
Experimental: as §2

[17] = In vitro bioconversion study (skin homogenates), mini-pig; details: mini-pig skin homogenate 3 mg/mL, prodrug 2.5 μg/mL, 37° C.
[18] = 15:1 L-dopa 4′-monophosphate/carbidopa 4′-monophosphate 16-hour SC infusion in mini-pigs; details: 15:1, 48/3.2 mg/kg
Experimental: In this study, the pig received a 16-hour subcutaneous infusion of a combination of the L-dopa 4′-monophosphate and the carbidopa 4′-monophosphate together in an aqueous solution at a dose ratio of 15:1 without an initial bolus dose. The doses were 48/3.2 mg/kg for L-dopa 4′-monophosphate and the carbidopa 4′-monophosphate, respectively.

[19] = 7-Day stability study, 4′ monophosphate combination solution; format: physicochemical; details: combination solution: L-dopa 4′-monophosphate 200 mg/mL + carbidopa 4′-monophosphate 50 mg/mL, pH 7.4, room temperature
Experimental: In addition, a solution combining the L-dopa 4′-monophosphate at 200 mg/mL and carbidopa 4′-monophosphate at 50 mg/mL was monitored over 7 days at room temperature. These samples were prepared with and without purging with nitrogen to remove oxygen.

[20] = for Bioconversion ratio (prodrug to active drug), Value: projected for human, mean of ratios observed in preclinical animals
[21] = L-dopa 4′-monophosphate/carbidopa 4′-monophosphate 4:1, 16-hour subcutaneous infusion in rats; format: in vivo; details: 4:1, SC bolus 60/14 mg/kg then infusion 300/71 mg/kg
Experimental: After 1.5 hours, the combination was dosed again via continuous infusion at a dose of 300/71 mg/kg over next 14.5 hours. Blood samples were collected at […], 0.25, 1, 6, 16, and 24 hours post dose. […] FIG. 7 provides a time-concentration profile for L-dopa and L-dopa 4′-monophosphate blood levels after administration of the combination of 4′-monophosphate prodrugs at a 4:1 ratio. […] Steady state concentration of ˜1 μg/mL was maintained over the infusion period for carbidopa. […] FIG. 9 provides a time-concentration profile for carbidopa and carbidopa 4′-monophosphate blood levels after administration of the combination of 4′-monophosphate prodrugs at a 4:1 ratio.

[22] = listed as diphosphate prodrug of carbidopa
[23] = listed as 3′,4′-diphosphate prodrug of carbidopa
[24] = listed as 4′-phosphate prodrug of carbidopa
[25] = listed as 4′-phosphate prodrug of L-dopa

Row | SMILES | L-Dopa or Carbidopa Formation [1] | L-Dopa or Carbidopa Formation [6] | CLp (plasma clearance), Value ([20]; human) | L-Dopa or Carbidopa Formation [2] | T1/2 [2] | L-Dopa or Carbidopa Formation [3] | T1/2 [3] | L-Dopa or Carbidopa Formation [5] | L-Dopa or Carbidopa Formation [7] | T1/2 [7] | L-Dopa or Carbidopa Formation [8] | stability and formation of L-dopa or carbidopa [10] | stability and formation of L-dopa or carbidopa [11] | stability and formation of L-dopa or carbidopa [12] | stability and formation of L-dopa or carbidopa [13] | stability and formation of L-dopa or carbidopa [15] | stability and formation of L-dopa or carbidopa [16] | L-Dopa or Carbidopa Formation [17] | T1/2 [17] | further results
1 | C[C@@](Cc1ccc(OP(=O)(O)O)c(OP(=O)(O)O)c1)(NN)C(=O)O [Carbidopa 3′,4′-diphosphate] | Yes | Yes |  | Yes | 53 min | No | stable | No | No | stable | No | stable without formation of L-dopa or carbidopa observed | stable without formation of L-dopa or carbidopa observed | stable without formation of L-dopa or carbidopa observed | stable without formation of L-dopa or carbidopa observed | stable without formation of L-dopa or carbidopa observed | stable without formation of L-dopa or carbidopa observed | No | stable | T1/2 [1, 22]: rapidly dephosphorylated; % Remaining After One Day [4]: >99%; T1/2 [5, 23]: stable; T1/2 [5, 22]: not dephosphorylated; T1/2 [6, 22]: rapidly dephosphorylated; T1/2 [8, 23]: stable; T1/2 [8, 22]: not dephosphorylated; Solubility ([9]; pH 5.5, Amorphous): >247 mg/mL; % Remaining After One Day ([14]; pH 6.8): >97%
2 | C[C@@](Cc1ccc(O)c(OP(=O)(O)O)c1)(NN)C(=O)O [Carbidopa 3′-phosphate, Carbidopa 3′-monophosphate] |  |  |  | Yes | 20.5 min | Yes | 724 min | Yes | Yes | 602 min | Yes |  |  |  |  |  |  | Yes | 413 min | T1/2 [5]: 58 min; T1/2 [8]: 8.9 min; Solubility ([9]; pH 7.1, Amorphous): >96 mg/mL; % Remaining After One Day ([14]; pH 6.5): >94%
3 | C[C@@](Cc1ccc(OP(=O)(O)O)c(O)c1)(NN)C(=O)O [Carbidopa 4′-phosphate, Carbidopa 4′-monophosphate] | Yes | Yes | 141 L/h | Yes |  |  |  |  | Yes |  |  | stable without formation of L-dopa or carbidopa observed | stable without formation of L-dopa or carbidopa observed | stable without formation of L-dopa or carbidopa observed | stable without formation of L-dopa or carbidopa observed | stable without formation of L-dopa or carbidopa observed | stable without formation of L-dopa or carbidopa observed | Yes |  | T1/2 [1, 24]: rapidly dephosphorylated; exposure of remaining carbidopa 4′-monophosphate as % of the carbidopa exposure [18]: ~22%; % Remaining After 7 Days ([19]; Nitrogen Purged): >99%; % Remaining After 7 Days ([19]; Non-Purged): >97%; T1/2 [6, 24]: rapidly dephosphorylated; SC F (subcutaneous bioavailability), Value ([20]; human): 0.65; Bioconversion ratio (prodrug to active drug), Value [20]: 0.7; solubility compared to L-dopa and carbidopa (FIG. 1) [9]: increased solubility; exposure of remaining carbidopa 4′-monophosphate as % of carbidopa [21]: ~8%; % Remaining After One Day ([14]; pH 6.8): >98%
4 | N[C@@H](Cc1ccc(O)c(OP(=O)(O)O)c1)C(=O)O [L-dopa 3′-phosphate] |  |  |  | Yes | 20.6 min | Yes | 737 min | Yes | Yes | 673 min | Yes |  |  |  |  |  | stable without formation of L-dopa or carbidopa observed | Yes | 885 min | T1/2 [5]: 28 min; T1/2 [8]: 8.8 min; Solubility ([9]; pH 7.0, Crystalline): >161 mg/mL; % Remaining After One Day ([14]; pH 7.0): >99%

Continued, in another order:

Row | L-Dopa or Carbidopa Formation [1] | L-Dopa or Carbidopa Formation [6] | CLp (plasma clearance), Value ([20]; human) | SMILES | L-Dopa or Carbidopa Formation [2] | T1/2 [2] | L-Dopa or Carbidopa Formation [3] | T1/2 [3] | L-Dopa or Carbidopa Formation [5] | L-Dopa or Carbidopa Formation [7] | T1/2 [7] | L-Dopa or Carbidopa Formation [8] | stability and formation of L-dopa or carbidopa [10] | stability and formation of L-dopa or carbidopa [11] | stability and formation of L-dopa or carbidopa [12] | stability and formation of L-dopa or carbidopa [13] | stability and formation of L-dopa or carbidopa [15] | stability and formation of L-dopa or carbidopa [16] | L-Dopa or Carbidopa Formation [17] | T1/2 [17] | further results
5 |  |  | 18 L/h | C[C@@](Cc1ccc(O)c(O)c1)(NN)C(=O)O [Carbidopa, (2S)-3-(3,4-dihydroxyphenyl)-2-hydrazino-2-methylpropanoic acid] |  |  |  |  |  |  |  |  |  |  |  |  |  |  |  |  | 
6 | Yes | Yes | 100 L/h | N[C@@H](Cc1ccc(OP(=O)(O)O)c(O)c1)C(=O)O [L-dopa 4′-phosphate, (S)-2-amino-3-(3-hydroxy-4-(phosphonooxy)phenyl)propanoic acid] | Yes |  |  |  |  | Yes |  |  | stable without formation of L-dopa or carbidopa observed | stable without formation of L-dopa or carbidopa observed | stable without formation of L-dopa or carbidopa observed | stable without formation of L-dopa or carbidopa observed | stable without formation of L-dopa or carbidopa observed |  | Yes |  | T1/2 [1, 25]: rapidly dephosphorylated; exposure of remaining L-dopa 4′-monophosphate as % of the levodopa exposure [18]: ~10%; % Remaining After 7 Days ([19]; Nitrogen Purged): >99%; % Remaining After 7 Days ([19]; Non-Purged): >99%; T1/2 [6, 25]: rapidly dephosphorylated; SC F (subcutaneous bioavailability), Value ([20]; human): 0.75; Bioconversion ratio (prodrug to active drug), Value [20]: 0.9; solubility compared to L-dopa and carbidopa (FIG. 1) [9]: increased solubility; exposure of remaining L-dopa 4′-monophosphate as % of levodopa [21]: ~22%; % Remaining After One Day ([14]; pH 7.0): >99%
7 |  |  | 24 L/h | N[C@@H](Cc1ccc(O)c(O)c1)C(=O)O [L-dopa, L-3,4-dihydroxyphenylalanine] |  |  |  |  |  |  |  |  |  |  |  |  |  |  |  |  | CLp Levodopa ([20]; human): 24 L/h
